Key:
Experiment in all cases: viability relative to DMSO control (fraction); higher = less drug effect (more viable cells)
Conditions in all cases: 48 h
Nilotinib = compound: Cc1cn(-c2cc(NC(=O)c3ccc(C)c(Nc4nccc(-c5cccnc5)n4)c3)cc(C(F)(F)F)c2)cn1 [Nilotinib]
Procedure, shortened: (§1)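 The cells were primary mononuclear tumour cells, either fresh or cryopreserved, isolated by Ficoll from blood or bone marrow or derived from processed lymph node. Each well of a 384-well plate received 4 × 10^4 cells onto compounds pre-plated at five concentrations, with one well per concentration. The medium was RPMI-1640 with penicillin/streptomycin, L-glutamine and human serum, and plates stood at 37 °C and 5% CO2 for 48 h. Viability is reported as CellTiter-Glo luminescence relative to the median of 16 inner DMSO wells.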

ONO-4059 = compound: CC#CC(=O)N1CC[C@@H](n2c(=O)n(-c3ccc(Oc4ccccc4)cc3)c3c(N)ncnc32)C1 [ONO-4059]
Procedure, shortened: as §1

Quizartinib = compound: CC(C)(C)c1cc(NC(=O)Nc2ccc(-c3cn4c(n3)sc3cc(OCCN5CCOCC5)ccc34)cc2)no1 [Quizartinib]
Procedure, shortened: as §1

EPZ-5676 = compound: CC(C)N(C[C@H]1O[C@@H](n2cnc3c(N)ncnc32)[C@H](O)[C@@H]1O)[C@H]1C[C@@H](CCc2nc3cc(C(C)(C)C)ccc3[nH]2)C1 [EPZ-5676]
Procedure, shortened: as §1

Vincristine = compound: CC[C@]1(O)C[C@H]2CN(CCc3c([nH]c4ccccc34)[C@@](C(=O)OC)(c3cc4c(cc3OC)N(C=O)[C@H]3[C@@](O)(C(=O)OC)[C@H](OC(C)=O)[C@]5(CC)C=CCN6CC[C@]43[C@@H]65)C2)C1 [Vincristine]
Procedure, shortened: as §1

AG-221 (Enasidinib) = compound: CC(C)(O)CNc1nc(Nc2ccnc(C(F)(F)F)c2)nc(-c2cccc(C(F)(F)F)n2)n1 [AG-221 (Enasidinib)]
Procedure, shortened: as §1

Pacritinib = compound: C1=N/C2=N/c3ccc(OCCN4CCCC4)c(c3)COC/C=C/COCc3cccc(c3)C(=C1)N2 [Pacritinib]
Procedure, shortened: as §1

8-Azaguanin = compound: Nc1nc2n[nH]nc2c(=O)[nH]1 [8-Azaguanin]
Procedure, shortened: as §1

Tozasertib = compound: Cc1cc(Nc2cc(N3CCN(C)CC3)nc(Sc3ccc(NC(=O)C4CC4)cc3)n2)n[nH]1 [Tozasertib]
Procedure, shortened: as §1

Nelarabine = compound: COc1nc(N)nc2c1ncn2[C@@H]1O[C@H](CO)[C@@H](O)[C@@H]1O [Nelarabine]
Procedure, shortened: as §1

BEZ235 = compound: Cn1c(=O)n(-c2ccc(C(C)(C)C#N)cc2)c2c3cc(-c4cnc5ccccc5c4)ccc3ncc21 [BEZ235]
Procedure, shortened: as §1

BI6727 = compound: CC[C@@H]1C(=O)N(C)c2cnc(Nc3ccc(C(=O)N[C@H]4CC[C@H](N5CCN(CC6CC6)CC5)CC4)cc3OC)nc2N1C(C)C [BI6727]
Procedure, shortened: as §1

Bortezomib = compound: CC(C)C[C@H](NC(=O)[C@H](Cc1ccccc1)NC(=O)c1cnccn1)B(O)O [Bortezomib]
Procedure, shortened: as §1

Carfilzomib = compound: CC(C)C[C@H](NC(=O)[C@H](CCc1ccccc1)NC(=O)CN1CCOCC1)C(=O)N[C@@H](Cc1ccccc1)C(=O)N[C@@H](CC(C)C)C(=O)[C@@]1(C)CO1 [Carfilzomib]
Procedure, shortened: as §1

primary AML patient cells (S091)
viability (Nilotinib; 0.016 µM): 1.05 | viability (Nilotinib; 0.08 µM): 1.07 | viability (Nilotinib; 0.4 µM): 1.13 | viability (Nilotinib; 2 µM): 0.991 | viability (Nilotinib; 10 µM): 1.06 | viability (ONO-4059; 0.0016 µM): 0.947 | viability (ONO-4059; 0.008 µM): 0.977 | viability (ONO-4059; 0.04 µM): 0.951 | viability (ONO-4059; 0.2 µM): 0.978 | viability (ONO-4059; 1 µM): 1.02 | viability (Quizartinib; 0.016 µM): 0.912 | viability (Quizartinib; 0.08 µM): 0.978 | viability (Quizartinib; 0.4 µM): 0.905 | viability (Quizartinib; 2 µM): 1.01 | viability (Quizartinib; 10 µM): 0.958 | viability (EPZ-5676; 0.0032 µM): 0.953 | viability (EPZ-5676; 0.016 µM): 0.965 | viability (EPZ-5676; 0.08 µM): 0.931 | viability (EPZ-5676; 0.4 µM): 1.04 | viability (EPZ-5676; 2 µM): 0.991 | viability (Vincristine; 0.016 µM): 1.24 | viability (Vincristine; 0.08 µM): 1.03 | viability (Vincristine; 0.4 µM): 0.882 | viability (Vincristine; 2 µM): 0.713 | viability (Vincristine; 10 µM): 0.784 | viability (AG-221 (Enasidinib); 0.024 µM): 0.827 | viability (AG-221 (Enasidinib); 0.12 µM): 1.01 | viability (AG-221 (Enasidinib); 0.6 µM): 0.913 | viability (AG-221 (Enasidinib); 3 µM): 0.895 | viability (AG-221 (Enasidinib); 15 µM): 0.847 | viability (Pacritinib; 0.024 µM): 0.924 | viability (Pacritinib; 0.12 µM): 0.891 | viability (Pacritinib; 0.6 µM): 0.732 | viability (Pacritinib; 3 µM): 0.176 | viability (Pacritinib; 15 µM): 0.0345 | viability (8-Azaguanin; 0.032 µM): 0.841 | viability (8-Azaguanin; 0.16 µM): 0.89 | viability (8-Azaguanin; 0.8 µM): 0.781 | viability (8-Azaguanin; 4 µM): 0.443 | viability (8-Azaguanin; 20 µM): 0.309 | viability (Tozasertib; 0.024 µM): 0.914 | viability (Tozasertib; 0.12 µM): 0.915 | viability (Tozasertib; 0.6 µM): 0.83 | viability (Tozasertib; 3 µM): 0.872 | viability (Tozasertib; 15 µM): 0.237 | viability (Nelarabine; 0.024 µM): 0.918 | viability (Nelarabine; 0.12 µM): 0.929 | viability (Nelarabine; 0.6 µM): 0.852 | viability (Nelarabine; 3 µM): 0.784 | viability (Nelarabine; 15 µM): 0.656 | viability (BEZ235; 0.024 µM): 0.873 | viability (BEZ235; 0.12 µM): 0.58 | viability (BEZ235; 0.6 µM): 0.328 | viability (BEZ235; 3 µM): 0.224 | viability (BEZ235; 15 µM): 0.143 | viability (BI6727; 0.024 µM): 0.616 | viability (BI6727; 0.12 µM): 0.558 | viability (BI6727; 0.6 µM): 0.334 | viability (BI6727; 3 µM): 0.237 | viability (BI6727; 15 µM): 0.0937 | viability (Bortezomib; 0.008 µM): 1.06 | viability (Bortezomib; 0.04 µM): 0.793 | viability (Bortezomib; 0.2 µM): 1.05 | viability (Bortezomib; 1 µM): 0.809 | viability (Bortezomib; 5 µM): 1.06 | viability (Carfilzomib; 0.00016 µM): 1.13 | viability (Carfilzomib; 0.0008 µM): 0.629 | viability (Carfilzomib; 0.004 µM): 0.138 | viability (Carfilzomib; 0.02 µM): 0.0738 | viability (Carfilzomib; 0.1 µM): 0.0718

primary CLL patient cells (S031)
viability (Nilotinib; 0.016 µM): 1.09 | viability (Nilotinib; 0.08 µM): 1.12 | viability (Nilotinib; 0.4 µM): 1.16 | viability (Nilotinib; 2 µM): 1.13 | viability (Nilotinib; 10 µM): 1.09 | viability (ONO-4059; 0.0016 µM): 0.831 | viability (ONO-4059; 0.008 µM): 0.829 | viability (ONO-4059; 0.04 µM): 0.719 | viability (ONO-4059; 0.2 µM): 0.749 | viability (ONO-4059; 1 µM): 0.72 | viability (Quizartinib; 0.016 µM): 1.03 | viability (Quizartinib; 0.08 µM): 1.15 | viability (Quizartinib; 0.4 µM): 1.04 | viability (Quizartinib; 2 µM): 1.13 | viability (Quizartinib; 10 µM): 1.02 | viability (EPZ-5676; 0.0032 µM): 0.887 | viability (EPZ-5676; 0.016 µM): 0.952 | viability (EPZ-5676; 0.08 µM): 0.895 | viability (EPZ-5676; 0.4 µM): 0.881 | viability (EPZ-5676; 2 µM): 0.925 | viability (Vincristine; 0.016 µM): 0.363 | viability (Vincristine; 0.08 µM): 0.246 | viability (Vincristine; 0.4 µM): 0.153 | viability (Vincristine; 2 µM): 0.131 | viability (Vincristine; 10 µM): 0.0855 | viability (AG-221 (Enasidinib); 0.024 µM): 0.738 | viability (AG-221 (Enasidinib); 0.12 µM): 0.754 | viability (AG-221 (Enasidinib); 0.6 µM): 0.847 | viability (AG-221 (Enasidinib); 3 µM): 0.799 | viability (AG-221 (Enasidinib); 15 µM): 0.786 | viability (Pacritinib; 0.024 µM): 0.865 | viability (Pacritinib; 0.12 µM): 0.78 | viability (Pacritinib; 0.6 µM): 0.483 | viability (Pacritinib; 3 µM): 0.198 | viability (Pacritinib; 15 µM): 0.0138 | viability (8-Azaguanin; 0.032 µM): 0.92 | viability (8-Azaguanin; 0.16 µM): 0.878 | viability (8-Azaguanin; 0.8 µM): 0.794 | viability (8-Azaguanin; 4 µM): 0.483 | viability (8-Azaguanin; 20 µM): 0.267 | viability (Tozasertib; 0.024 µM): 0.906 | viability (Tozasertib; 0.12 µM): 0.797 | viability (Tozasertib; 0.6 µM): 0.757 | viability (Tozasertib; 3 µM): 0.559 | viability (Tozasertib; 15 µM): 0.284 | viability (Nelarabine; 0.024 µM): 1.04 | viability (Nelarabine; 0.12 µM): 0.991 | viability (Nelarabine; 0.6 µM): 0.932 | viability (Nelarabine; 3 µM): 0.73 | viability (Nelarabine; 15 µM): 0.484 | viability (BEZ235; 0.024 µM): 0.859 | viability (BEZ235; 0.12 µM): 0.812 | viability (BEZ235; 0.6 µM): 0.727 | viability (BEZ235; 3 µM): 0.562 | viability (BEZ235; 15 µM): 0.132 | viability (BI6727; 0.024 µM): 0.922 | viability (BI6727; 0.12 µM): 0.854 | viability (BI6727; 0.6 µM): 0.866 | viability (BI6727; 3 µM): 0.524 | viability (BI6727; 15 µM): 0.178 | viability (Bortezomib; 0.008 µM): 0.967 | viability (Bortezomib; 0.04 µM): 1.03 | viability (Bortezomib; 0.2 µM): 0.938 | viability (Bortezomib; 1 µM): 1.04 | viability (Bortezomib; 5 µM): 0.94 | viability (Carfilzomib; 0.00016 µM): 1 | viability (Carfilzomib; 0.0008 µM): 0.135 | viability (Carfilzomib; 0.004 µM): 0.0182 | viability (Carfilzomib; 0.02 µM): 0.0155 | viability (Carfilzomib; 0.1 µM): 0.0219

— the supplement of paper PMC10733146
